For assay [1], the system named is human chondrogenic progenitor cell (CPCs). As to the kind of experiment: Collagen type II assay (chondrogenic differentiation). The format is cell-based. The note with it: 432 h, hCPCs, 18 days; for Emax: read-out: (B) % Efficacy; for EC50: read-out: (B) EC50. How it is done: To initiate chondrogenesis in primary CPCs, 8000 cells were plated/well in a Costar 96 well plate in MSCGM. After 24 hours the MSCGM was removed and replaced with DMEM containing 1% FBS. The test compound was then added to each well at the indicated dose. The cultures were grown at 37° C. for 18 days. A media supplement of an additional 50 μl of DMEM containing 1% FBS was given 10 days after chondrogenic induction.
To detect the presence of Collagen type II, hCPCs were fixed with 10% formalin for 20 minutes, permeablized with PBS containing 0.1% triton X-100, 0.2 mg/ml of Collagenase 2 for 10 minutes, blocked with PBS containing 5% BSA for 1 hr at room temperature, followed by incubation with primary antibody (anti-type II collagen antibody) in PBS containing 1% BSA overnight at 4° C. Cells were washed 3 times with PBS and incubated with fluorophore-conjugated secondary antibody and Hoechst dye for 1 hour at room temperature, followed by washing with PBS for 3 times.
The total intensity of staining was imaged by fluoresecent microscopy and/or quantified by high content imagining with the ImageXpress Micro (Molecular Devices, Sunnyvale, CA). Data analyses were performed with the customized multiwavelength cell-scoring application.

The subject of the next assay is NHACs. As to the kind of experiment: calcium flux assay. The note with it: for Emax: read-out: (A) % Efficacy. The format is cell-based, human. In outline: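 Normal human articular chondrocytes plated at 2000 cells/well and loaded 24 h later with Calcium 5 dye in HBSS/HEPES with 5 mM probenecid for 1 h at room temperature. Test compound added at indicated dose; fluorescence (ex 470–495/em 515–575 nm) recorded on FLIPR before and after addition.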

The subject of the next assay is C3H10T1/2 cell line. The assay is described as follows: alkaline phosphatase assay in C3H10T1/2. Type of assay: cell-based. Conditions: alkaline phosphatase assay in C3H10T1/2, 6 days; for Emax: read-out: (D) % Efficacy; for IC50: read-out: (D) IC50. In outline:
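Mouse C3H10T1/2 Clone 8 cells in DMEM/10% FBS dosed 24 h after plating, then cultured 6 days at 37° C. Fixed cells stained for alkaline phosphatase (Fast Blue RR/Naphthol AS-MX), imaged at 561 nm; readout is ALP-positive cells per well by high-content imaging.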

Assay [2] concerns normal human articular chondrocytes (NHACs). As to the kind of experiment: alkaline phosphatase assay in NHAC. The format is cell-based. The note with it: 10 days; for Emax: read-out: (C) % Efficacy; for IC50: read-out: (C) IC50. How it is done:
To initiate differentiation in NHACs, 16,000 cells were plated/well in Costar 96 well plate in CGM media (Lonza). After 24 hours the MSCGM was removed and replaced with DMEM containing 1% FBS. The test compound was then added to each well at the indicated dose. The cultures were grown at 37° C. for 10 days.
To detect the presence of hypertrophic cells, NHACs were fixed with 10% formalin and Hoeschst dye for 20 minutes, rinsed in PBS, then stained with Fast Blue RR Salt with Naphthol AS-MX Phosphate Alkaline Solution.
The total intensity of staining was imaged by fluoresecent microscopy, using the 651 wavelength, and/or quantified by high content imagining with the ImageXpress Micro (Molecular Devices, Sunnyvale, CA). Data analyses were performed with the customized multiwavelength cell-scoring application.

Where [3] appears, read: Mus musculus, C3H 10T1/2, 144 h.
Setting [4] is: Homo sapiens, Chondrocyte, 240 h.

Here are results for 16 compounds from patent US12209096B2, “Compounds and compositions for inducing chondrogenesis” (NOVARTIS AG, priority 2017, dated 2025).

Read-outs that look alike come from different tables or passages of the source.

On to `Cc1cc([C@H]2[C@H]3O[C@H](C[C@@H]3O)[C@@H]2C(=O)Nc2cnc(Cl)c(Cl)c2)ccn1` (single isomer, unassigned) [Example 83], for which the Emax is 150% in assay [1], 38% in the assay on NHACs (Homo sapiens), 34% with C3H10T1/2 cell line (setting [3]) and 106% in assay [2] (setting [4]). For the same compound, the EC50 in assay [1] was 1500 nM; in the assay on NHACs (Homo sapiens), above 50 µM. For the same compound, the IC50 was above 20 µM in the assay on C3H10T1/2 cell line (setting [3]) and 12 µM in assay [2] (setting [4]).

For `O=C(Nc1ccc(Cl)c(Cl)c1)[C@@H]1[C@@H](c2ccnc(F)c2)[C@H]2O[C@@H]1C[C@@H]2O` (single isomer, unassigned) [Example 142a], the Emax in assay [1] is 83%; in the assay with NHACs (Homo sapiens), 68%; in the assay with C3H10T1/2 cell line (setting [3]), 81%; in assay [2] (setting [4]) it was 93%. Moreover, the EC50 in assay [1] turned out to be 1200 nM; in the assay with NHACs (Homo sapiens), 22 µM. In addition, the IC50 in the assay on C3H10T1/2 cell line (setting [3]) came to 6.6 µM; in assay [2] (setting [4]), 33 µM.

As for `Cc1cc([C@H]2[C@H]3O[C@H](C[C@@H]3O)[C@H]2C(=O)Nc2cccc(C(F)(F)F)c2)ccn1` [Example 8, (1R,2S,3S,4R,5S)-5-hydroxy-3-(2-methylpyridin-4-yl)-N-[3-(trifluromethyl)phenyl]-7-oxabicyclo[2.2.1]heptane-2-carboxamide], in the assay on NHACs (Homo sapiens), the EC50 is above 50 µM and the Emax is 50%. For the same compound, in the assay with C3H10T1/2 cell line (setting [3]), the Emax is 16% and the IC50 is above 20 µM. In assay [2] (setting [4]), the Emax was 62% and the IC50 was above 31 µM.

Take `Cc1cc([C@H]2[C@H]3O[C@H]([C@@H]4C[C@@H]43)[C@H]2C(=O)Nc2ccc(Cl)c(Cl)c2)ccn1` (single isomer, unassigned) [Example 23a]: the Emax in assay [1] was 29%; in the assay with NHACs (Homo sapiens) it was 99%; in the assay with C3H10T1/2 cell line (setting [3]), 28%; in assay [2] (setting [4]), 100%. In addition, the EC50 is 780 nM in assay [1] and 6.1 µM in the assay with NHACs (Homo sapiens). The figures for the IC50 (in the assay on C3H10T1/2 cell line (setting [3]); in assay [2] (setting [4])) were above 20 µM and 30 µM, respectively.

`O=C(Nc1cccc(C(F)(F)F)c1)[C@H]1[C@@H](c2ccncc2)[C@H]2O[C@@H]1C[C@@H]2O` (single isomer, unassigned) [Example 11a]: the Emax in assay [1] worked out at 91%; with NHACs (Homo sapiens), 98%; in the assay on C3H10T1/2 cell line (setting [3]) it was 6%; in assay [2] (setting [4]) it was 65%. For the same compound, the EC50 in assay [1] was 2900 nM; with NHACs (Homo sapiens), 0.27 µM. The results for the IC50 (in the assay with C3H10T1/2 cell line (setting [3]); in assay [2] (setting [4])) were above 20 µM and 48 µM, respectively.

Turning to `Cc1cc([C@@H]2[C@@H]3O[C@@H]([C@@H](O)[C@H]3O)[C@H]2C(=O)Nc2ccc(Cl)c(Cl)c2)ccn1` (single isomer, unassigned) [Example 157], the Emax in assay [1] amounted to 59%; in the assay with NHACs (Homo sapiens) it was 57%; in the assay with C3H10T1/2 cell line (setting [3]), 15%; in assay [2] (setting [4]), 84%. The values for the EC50 (in assay [1]; in the assay on NHACs (Homo sapiens)) were 2100 nM and 29 µM, respectively. Further, the IC50 was above 20 µM in the assay on C3H10T1/2 cell line (setting [3]) and 32 µM in assay [2] (setting [4]).

On to `O=C(Nc1cnc(Cl)c(Cl)c1)[C@@H]1[C@@H](c2ccnc(F)c2)[C@H]2O[C@@H]1C[C@@H]2O` (single isomer, unassigned) [Example 90a], for which the Emax in assay [1] came out at 65%; in the assay with NHACs (Homo sapiens), 101%; with C3H10T1/2 cell line (setting [3]), 48%; in assay [2] (setting [4]) it was 98%. For the same compound, the EC50 in assay [1] is 2300 nM; with NHACs (Homo sapiens) it was above 50 µM. For the same compound, the results for the IC50 (in the assay on C3H10T1/2 cell line (setting [3]); in assay [2] (setting [4])) were above 20 µM and above 50 µM, respectively.

As for `Cc1cc([C@H]2[C@H]3O[C@H](C[C@@H]3O)[C@@H]2C(=O)Nc2ccc(Cl)c(Cl)c2)ccn1` (single isomer, unassigned) [Example 77a], the Emax in assay [1] worked out at 120%; in the assay with NHACs (Homo sapiens) it was 182%; with C3H10T1/2 cell line (setting [3]), 45%; in assay [2] (setting [4]), 114%. Besides, the figures for the 50% effective concentration (EC50) (in assay [1]; in the assay with NHACs (Homo sapiens)) were 690 nM and 26 µM, respectively. In addition, the IC50 with C3H10T1/2 cell line (setting [3]) is above 20 µM; in assay [2] (setting [4]), 3.5 µM.

On to `O=C(Nc1ccc(Cl)c(Cl)c1)[C@H]1[C@@H](c2ccnc(F)c2)[C@H]2O[C@@H]1C[C@@H]2O` (single isomer, unassigned) [Example 52a], for which the Emax in assay [1] was 80%; with NHACs (Homo sapiens), 96%; in the assay on C3H10T1/2 cell line (setting [3]), 36%; in assay [2] (setting [4]), 71%. The EC50 in assay [1] was 490 nM; in the assay with NHACs (Homo sapiens), above 50 µM. Further, the IC50 in the assay on C3H10T1/2 cell line (setting [3]) is above 20 µM; in assay [2] (setting [4]) it was 17 µM.

Regarding `O=C(Nc1ccc(Cl)c(Cl)c1)[C@H]1[C@@H](c2ccncc2)[C@H]2O[C@@H]1C[C@@H]2O` (single isomer, unassigned) [Example 47a], the Emax stood at 82% in assay [1], 68% with NHACs (Homo sapiens), 23% with C3H10T1/2 cell line (setting [3]) and 88% in assay [2] (setting [4]). In addition, the EC50 was 2100 nM in assay [1] and above 50 µM in the assay with NHACs (Homo sapiens). Also, the IC50 was above 20 µM in the assay on C3H10T1/2 cell line (setting [3]) and 33 µM in assay [2] (setting [4]).

`Cc1cc([C@H]2[C@H]3O[C@H](C[C@H]3N3CCOCC3)[C@@H]2C(=O)Nc2ccc(Cl)c(Cl)c2)ccn1` [Example 177, (1R,2R,3S,4R,5R)—N-(3,4-dichlorophenyl)-3-(2-methylpyridin-4-yl)-5-morpholino-7-oxabicyclo[2.2.1]heptane-2-carboxamide]: the Emax was found to be 34% in assay [1], 211% in the assay on NHACs (Homo sapiens), 103% in the assay with C3H10T1/2 cell line (setting [3]) and 33% in assay [2] (setting [4]). In addition, the EC50 was determined as 1500 nM in assay [1] and 22 µM with NHACs (Homo sapiens). For the same compound, the results for the half-maximal inhibitory concentration (IC50) (in the assay with C3H10T1/2 cell line (setting [3]); in assay [2] (setting [4])) were 1.5 µM and above 50 µM, respectively.

On to `O=C(Nc1ccc(Cl)c(Cl)c1)[C@H]1[C@@H]2O[C@@H]([C@H]3C[C@H]32)[C@@H]1c1cccc(C(F)(F)F)n1` [Example 120, (1S,2S,4R,5R,6R,7S)—N-(3,4-dichlorophenyl)-7-(6-(trifluoromethyl)pyridin-2-yl)-8-oxatricyclo[3.2.1.0^2,4]octane-6-carboxamide], for which, in the assay with NHACs (Homo sapiens), the EC50 was 20 µM and the Emax turned out to be 102%. In the assay on C3H10T1/2 cell line (setting [3]), the Emax came out at 119% and the IC50 came out at 4.4 µM.

As for `O=C(Nc1ccc(Cl)c(Cl)c1)[C@@H]1[C@@H]2O[C@@H]([C@H]3C[C@H]32)[C@@H]1c1cncnc1` [Example 27], in the assay with NHACs, the “(A) % Efficacy” value is recorded as 120% and the EC50 is 13 µM. In the assay on C3H10T1/2 cell line, the “(D) % Efficacy” value was 48% and the IC50 is above 20 µM. Also, in assay [2], the “(C) % Efficacy” value is recorded as 71% and the IC50 was found to be 34 µM.

On to `Nc1cc([C@H]2[C@H]3O[C@H](C[C@@H]3O)[C@@H]2C(=O)Nc2ccc(Cl)c(Cl)c2)ccn1` [Example 149, (1R,2R,3S,4R,5S)-3-(2-aminopyridin-4-yl)-N-(3,4-dichlorophenyl)-5-hydroxy-7-oxabicyclo[2.2.1]heptane-2-carboxamide], for which, in the assay with NHACs (Homo sapiens), the EC50 is 26 µM and the Emax was 112%. In the assay on C3H10T1/2 cell line (setting [3]), the Emax came to 58% and the IC50 amounted to 8.3 µM.

For `Cc1ncc([C@H]2[C@H]3O[C@H](C[C@@H]3O)[C@@H]2C(=O)Nc2ccc(Cl)c(Cl)c2)cn1` [Example 148, (1R,2R,3S,4R,5S)—N-(3,4-dichlorophenyl)-5-hydroxy-3-(2-methylpyrimidin-5-yl)-7-oxabicyclo[2.2.1]heptane-2-carboxamide], in the assay on NHACs (Homo sapiens), the EC50 is 7.8 µM and the Emax stood at 51%. In the assay on C3H10T1/2 cell line (setting [3]), the Emax worked out at 58% and the IC50 turned out to be 18 µM.

With `COc1ccc(NC(=O)[C@H]2[C@@H]3O[C@@H]([C@H]4C[C@H]43)[C@@H]2c2ccc(C)nc2)cn1` [Example 123, (1S,2S,4R,5R,6R,7S)—N-(6-methoxypyridin-3-yl)-7-(6-methylpyridin-3-yl)-8-oxatricyclo[3.2.1.0^2,4]octane-6-carboxamide], in the assay with NHACs (Homo sapiens), the EC50 was above 50 µM and the Emax came to 0%. Moreover, in the assay with C3H10T1/2 cell line (setting [3]), the Emax worked out at 48% and the IC50 is above 20 µM.
